Test results as given in ChEMBL document CHEMBL1944637, “Asymmetric synthesis and cytotoxicity of (-)-saframycin A analogues” (Eur J Med Chem, 2012).

How the values were obtained:
HCT-8 = assay: Cytotoxicity against human HCT8 cells assessed as cell viability after 72 hrs by MTT assay; type: functional, cell-based; conditions: HCT-8, 72 h
HeLa = assay: Cytotoxicity against human HeLa cells assessed as cell viability after 72 hrs by MTT assay; type: functional, cell-based
A549 [1] = assay: Cytotoxicity against human A549 cells assessed as cell viability after 72 hrs by MTT assay; type: functional, cell-based; conditions: A549, 72 h
[2] = Cytotoxicity against human BGC803 cells assessed as cell viability after 72 hrs by MTT assay; type: functional, cell-based; conditions: BGC803, 72 h
Bel-7402 = assay: Cytotoxicity against human Bel7402 cells assessed as cell viability after 72 hrs by MTT assay; type: functional, cell-based; conditions: Bel-7402, 72 h
KETR3 = assay: Cytotoxicity against human Ketr3 cells assessed as cell viability after 72 hrs by MTT assay; type: functional, cell-based; conditions: KETR3, 72 h
MCF7 = assay: Cytotoxicity against human MCF7 cells assessed as cell viability after 72 hrs by MTT assay; type: functional, cell-based; conditions: MCF7, 72 h
KB = assay: Cytotoxicity against human KB cells assessed as cell viability after 72 hrs by MTT assay; type: functional, cell-based
[3] = Cytotoxicity against human HELF cells assessed as cell viability after 72 hrs by MTT assay; type: functional, cell-based
A2780 = assay: Cytotoxicity against human A2780 cells assessed as cell viability after 72 hrs by MTT assay; type: functional, cell-based; conditions: A2780, 72 h
A549 [4] = assay: Ratio of Saframycin A IC50 to compound IC50 for human A549 cells; type: functional

| SMILES | IC50 (HCT-8) [µM] | IC50 (HeLa) [µM] | IC50 (A549 [1]) [µM] | IC50 [2] [µM] | IC50 (Bel-7402) [µM] | IC50 (KETR3) [µM] | IC50 (MCF7) [µM] | IC50 (KB) [µM] | IC50 [3] [µM] | IC50 (A2780) [µM] | Ratio IC50 (A549 [4]) |
| --- | --- | --- | --- | --- | --- | --- | --- | --- | --- | --- | --- |
| COC1=C(C)C(=O)C2=C(C1=O)[C@@H]1[C@@H]3CC4=C(C(=O)C(OC)=C(C)C4=O)[C@H](CNC(=O)/C=C/c4cccc(C(F)(F)F)c4)N3[C@@H](C#N)[C@H](C2)N1C | 0.0433 | 0.0079 | 0.0771 | 0.0223 | 0.0297 | 0.0289 | 0.0042 | 0.0117 | > 0.1 | 0.0398 |  |
| COC1=C(C)C(=O)C2=C(C1=O)[C@@H]1[C@@H]3CC4=C(C(=O)C(OC)=C(C)C4=O)[C@H](CNC(=O)/C=C/c4ccnc5ccccc45)N3[C@@H](C#N)[C@H](C2)N1C | 0.0182 | 0.00833 | 0.0357 | 0.0171 | 0.0182 | 0.0115 | 0.00223 | 0.0057 | 0.0234 | 0.0175 |  |
| COC1=C(C)C(=O)C2=C(C1=O)[C@@H]1[C@@H]3CC4=C(C(=O)C(OC)=C(C)C4=O)[C@H](CNC(=O)/C=C/c4ccc(OC)cc4)N3[C@@H](C#N)[C@H](C2)N1C | 0.0467 | 0.00777 | 0.0238 | 0.00691 | 0.00623 | 0.011 | 0.00535 | 0.00904 | 0.00488 | 0.0144 |  |
| CCc1ccc(/C=C/C(=O)NC[C@H]2C3=C(C[C@H]4[C@H]5C6=C(C[C@@H]([C@H](C#N)N24)N5C)C(=O)C(C)=C(OC)C6=O)C(=O)C(C)=C(OC)C3=O)cc1 | > 0.1 | 0.00868 | 0.0967 | 0.0212 | 0.0243 | 0.0521 | 0.0185 | 0.0284 | > 0.1 | 0.0255 |  |
| COC1=C(C)C(=O)C2=C(C1=O)[C@@H]1[C@@H]3CC4=C(C(=O)C(OC)=C(C)C4=O)[C@H](CNC(=O)/C=C/c4ccc(OC)c(OC)c4OC)N3[C@@H](C#N)[C@H](C2)N1C | 0.0274 | 0.00385 | 0.0818 | 0.00627 | 0.0114 | 0.0155 | 0.00544 | 0.00985 | > 0.1 | 0.0337 |  |
| COC1=C(C)C(=O)C2=C(C1=O)[C@@H]1[C@@H]3CC4=C(C(=O)C(OC)=C(C)C4=O)[C@H](CNC(=O)/C=C/c4ccc(C(C)(C)C)cc4)N3[C@@H](C#N)[C@H](C2)N1C | > 0.1 | 0.0312 | > 0.1 | 0.031 | > 0.1 | > 0.1 | 0.0256 | 0.0263 | > 0.1 |  |  |
| COC1=C(C)C(=O)C2=C(C1=O)[C@@H]1[C@@H]3CC4=C(C(=O)C(OC)=C(C)C4=O)[C@H](CNC(=O)CNC(=O)c4ccccc4)N3[C@@H](C#N)[C@H](C2)N1C | 0.0585 | 0.0107 | 0.01 | 0.0277 | 0.0224 | 0.0236 | 0.0395 | 0.0169 | 0.0167 | 0.0439 |  |
| COC1=C(C)C(=O)C2=C(C1=O)[C@@H]1[C@@H]3CC4=C(C(=O)C(OC)=C(C)C4=O)[C@H](CNC(=O)OC(C)(C)C)N3[C@@H](C#N)[C@H](C2)N1C | > 0.1 | 0.00741 | 0.0343 | 0.0663 | 0.00538 | 0.0129 | 0.00889 | 0.0294 | 0.0184 | 0.0227 |  |
| COC1=C(C)C(=O)C2=C(C1=O)[C@@H]1[C@@H]3CC4=C(C(=O)C(OC)=C(C)C4=O)[C@H](CNC(=O)c4cc(OC)c(OC)c(OC)c4)N3[C@@H](C#N)[C@H](C2)N1C | 0.0149 | 0.00252 | 0.0187 | 0.00419 | 0.00303 | 0.00363 | 0.00113 | 0.00127 | 0.00338 | 0.00367 |  |
| COC1=C(C)C(=O)C2=C(C1=O)[C@@H]1[C@@H]3CC4=C(C(=O)C(OC)=C(C)C4=O)[C@H](CNC(=O)c4cccc(C(F)(F)F)c4)N3[C@@H](C#N)[C@H](C2)N1C | > 0.1 | 0.0432 | > 0.1 | 0.0585 | 0.021 | 0.0306 | 0.0261 | 0.0539 | 0.0257 | 0.0471 |  |
| COC1=C(C)C(=O)C2=C(C1=O)[C@@H]1[C@@H]3CC4=C(C(=O)C(OC)=C(C)C4=O)[C@H](CNC(=O)c4ccc5c(c4)OCO5)N3[C@@H](C#N)[C@H](C2)N1C | 0.0211 | 0.00334 | 0.069 | 0.02 | 0.00202 | 0.00688 | 0.00479 | 0.00394 | 0.00218 | 0.00511 |  |
| COC1=C(C)C(=O)C2=C(C1=O)[C@@H]1[C@@H]3CC4=C(C(=O)C(OC)=C(C)C4=O)[C@H](CNC(=O)c4cc(Br)ccc4Cl)N3[C@@H](C#N)[C@H](C2)N1C | > 0.1 | > 0.1 |  | 0.0663 |  |  |  |  |  |  |  |
| COC1=C(C)C(=O)C2=C(C1=O)[C@@H]1[C@@H]3CC4=C(C(=O)C(OC)=C(C)C4=O)[C@H](CNC(=O)c4ccc5ccccc5n4)N3[C@@H](C#N)[C@H](C2)N1C | 0.0434 | 0.00951 | 0.0653 | 0.0215 | 0.0237 | 0.0699 | 0.0149 | 0.0166 | 0.0198 | 0.0296 |  |
| COC1=C(C)C(=O)C2=C(C1=O)[C@@H]1[C@@H]3CC4=C(C(=O)C(OC)=C(C)C4=O)[C@H](CNC(=O)c4cc5ccccc5[nH]4)N3[C@@H](C#N)[C@H](C2)N1C | 0.0905 | 0.00529 | 0.035 | 0.0263 | 0.0115 | 0.0197 | 0.0229 | 0.0149 | 0.0175 | 0.0112 |  |
| COC1=C(C)C(=O)C2=C(C1=O)[C@@H]1[C@@H]3CC4=C(C(=O)C(OC)=C(C)C4=O)[C@H](CNC(=O)c4cnccn4)N3[C@@H](C#N)[C@H](C2)N1C | 0.0105 | 0.00189 | 0.00189 | 0.0121 | 0.00187 | 0.00161 | 0.00306 | 0.00185 | 0.00153 | 0.00717 | 20 |
| COC1=C(C)C(=O)C2=C(C1=O)[C@@H]1[C@@H]3CC4=C(C(=O)C(OC)=C(C)C4=O)[C@H](CNC(=O)c4ccco4)N3[C@@H](C#N)[C@H](C2)N1C | 0.0124 | 0.00258 | 0.00095 | 0.016 | 0.00122 | 0.00301 | 0.0153 | 0.00355 | 0.00168 | 0.00387 |  |
| COC1=C(C)C(=O)C2=C(C1=O)[C@@H]1[C@@H]3CC4=C(C(=O)C(OC)=C(C)C4=O)[C@H](CNC(=O)c4ccccn4)N3[C@@H](C#N)[C@H](C2)N1C | 0.0221 | 0.00727 | 0.03 | 0.0321 | 0.0038 | 0.0151 | 0.0156 | 0.00917 | 0.00657 | 0.0119 |  |
| COC1=C(C)C(=O)C2=C(C1=O)[C@@H]1[C@@H]3CC4=C(C(=O)C(OC)=C(C)C4=O)[C@H](CNC(=O)c4cccs4)N3[C@@H](C#N)[C@H](C2)N1C | > 0.1 | 0.0174 | > 0.1 | 0.00419 | 0.0164 | 0.0373 | 0.0452 | 0.0175 | 0.0272 | 0.0274 |  |
| COC1=C(C)C(=O)C2=C(C1=O)[C@@H]1[C@@H]3CC4=C(C(=O)C(OC)=C(C)C4=O)[C@H](CNC(=O)c4nccc5ccccc45)N3[C@@H](C#N)[C@H](C2)N1C | > 0.1 | 0.0266 | 0.0886 | 0.0585 | 0.0847 | > 0.1 | 0.0242 | 0.075 | 0.0854 | 0.098 |  |
| COc1c(C)cc2c(c1O)[C@@H]1[C@@H]3Cc4cc(C)c(OC)c(O)c4[C@H](CNC(=O)OC(C)(C)C)N3[C@@H](C#N)[C@H](C2)N1C | 0.0638 | 0.0927 | 0.0268 | 0.0321 | 0.0324 | 0.0237 | 0.0173 | 0.0314 | 0.0195 | 0.045 |  |
| COC1=C(C)C(=O)C2=C(C1=O)[C@@H]1[C@@H]3CC4=C(C(=O)C(OC)=C(C)C4=O)[C@H](CNC(=O)C(C)=O)N3[C@@H](C#N)[C@H](C2)N1C [SAFRAMYCIN A] | 0.00249 | 0.00106 | 0.0404 | 0.011 | 0.00183 | 0.00956 | 0.00639 | 0.00223 | 0.00254 | 0.00275 |  |
